Measured values from article PMC5835390 (Chemical communications (Cambridge, England), 2018).

Tests used:
[1] = chromatographic, C18 column, same gradient; cited from earlier work
[2] = system: carboxypeptidase; experiment: Carboxypeptidase treatment of albusnodin; type: in vitro ADME; settings: reports on threaded state, Fig. S9

| Substance | HPLC elution time (used as indication of polarity) [1] | Resistance to carboxypeptidase cleavage [2] |
| --- | --- | --- |
| astexin-1 | around 14 minutes | – |
| microcin J25 (GGAGHVPEYFVGIGTPISFYG; not fully specified; Microcin J25 lasso peptide; UniProt Q9X2V7 38-58, looked up) | around 17 minutes | – |
| albusnodin | – | resistant to carboxypeptidase cleavage |
| astexin-2 | around 14 minutes | – |
| astexin-3 | around 14 minutes | – |
